According to patent US9315475B2 (MERCK SHARP & DOHME CORP., priority 2011, dated 2016):

What was measured:
HIV-1 (H9IIIB strain) = assay: Antiviral acute infection assay in cell culture (Spread); format: cell-based; conditions: Human immunodeficiency virus 1, T-lymphoid, HIV-1 H9IIIB infection of MT-4 human T-lymphoid cells in 10% FBS; mean of at least two independent experiments
Excerpt: Antiviral Assays in Cell Culture (“Spread”)
Acute Infection Assay (“Spread”) data were generated using HIV-1 (H9IIIB strain) infection of MT-4 human T-lymphoid cells in 10% FBS, and according to the methods disclosed by J. P. Vacca et al, “L-735,524: An orally bioavailable human immunodeficiency virus type 1 protease inhibitor,” Proc. Natl. Acad. Sci. USA, Vol. 91, pp. 4096-4100 (April 1994).

wildtype HIV-1 protease = target: T1, wildtype HIV-1 protease (Human immunodeficiency virus type 1 group M subtype B, UniProt P04585); assay: Assay for inhibition of microbial expressed HIV protease (Pepcleav); format: biochemical; conditions: wild type HIV-1 protease expressed in E. coli, peptide substrate, pH 5.5; mean of at least two independent experiments; read-out: Pepcleav
T1 construct: the wildtype HIV-1 protease (which was expressed in Escherichia coli); made in house; host or cells: Escherichia coli
How it was run: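 Cleavage of 400 μM peptide substrate Val-Ser-Gln-Asn-(βnaphthyl)Ala-Pro-Ile-Val by 20 pM wild-type enzyme (E. coli-expressed) ran 1 h at 30 °C after 30 min inhibitor preincubation, pH 5.5 acetate buffer. Inhibition derived from product peak area by C18 LC with multiple-reaction-monitoring MS after formic acid quench.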

Row | Compound | EC50 (HIV-1 (H9IIIB strain)) | IC50 (wildtype HIV-1 protease)
1 | COC(=O)N[C@H](C(=O)Nc1cncc(F)c1CC[C@@H]1CN[C@H](COC(=O)NCC(F)(F)F)CO1)[C@H](c1ccccc1)c1ccc(OC(F)(F)F)cc1 [Example 291, (βR)-N-(5-fluoro-4-{2-[(2R,5S)-5-({[(2,2,2-trifluoroethyl)carbamoyl]oxy}methyl)morpholin-2-yl]ethyl}pyridin-3-yl)-Nα-(methoxycarbonyl)-β-phenyl-O-(trifluoromethyl)-L-tyrosinamide] | 110 nM | 28 nM
2 | COC(=O)N[C@H](C(=O)Nc1cccc(F)c1CC[C@@H]1CN[C@H](COC(=O)NCC(F)(F)F)CO1)[C@H](c1ccc(F)cc1)c1ccc(F)c(F)c1 [Example 295, (βR)-β-(3,4-difluorophenyl)-4-fluoro-N-(3-fluoro-2-{2-[(2R,5S)-5-({[(2,2,2-trifluoroethyl)carbamoyl]oxy}methyl)morpholin-2-yl]ethyl}phenyl)-Nα-(methoxy-carbonyl)-L-phenylalaninamide] | 13 nM | 2.5 nM
3 | COC(=O)N[C@H](C(=O)Nc1cccc(F)c1CC[C@@H]1CN[C@H](COC(=O)NCC(F)(F)F)CO1)[C@H](c1ccc(F)cc1)c1ccc2ccccc2c1 [Example 289] | 310 nM | 16 nM
4 | N[C@H](C(=O)Nc1cncc(F)c1CC[C@@H]1CN[C@H](COC(=O)NCC2CNC(=O)O2)CO1)C(c1ccc(F)cc1)c1ccc(F)cc1 (stereo partly drawn) [Example 240, 4-fluoro-N-[5-fluoro-4-(2-{(2R,5S)-5-[({[(2-oxo-1,3-oxazolidin-5-yl)methyl]carbamoyl}oxy)methyl]morpholin-2-yl}ethyl)pyridin-3-yl]-β-(4-fluorophenyl)-L-phenylalaninamide] | 5000 nM | 39 nM
5 | O=C(C[C@@H](c1ccc(F)cc1)c1cc(F)cc(F)c1)Nc1cncc(F)c1CC[C@@H]1CNC(COC(=O)NCC(F)(F)F)CO1 (stereo in doubt) [Example 89, (3S)-3-(4-Fluorophenyl)-3-(3,5-difluorophenyl)-N-(5-fluoro-4-(2-((2R,5R)-5-(2,2,2-trifluoroethylaminocarbonyloxymethyl)morpholine-2-yl)ethyl)pyridin-3-yl)propanamide] | 13 nM | 1.4 nM
6 | COC(=O)N[C@H](C(=O)Nc1cncc(F)c1CC[C@@H]1CN[C@H](COC(=O)NCC(F)(F)F)CO1)[C@@H](c1ccc(F)cc1)c1cc(F)ccc1F [Example 300, (βS)-2,5-difluoro-β-(4-fluorophenyl)-N-(5-fluoro-4-{2-[(2R,5S)-5-({[(2,2,2-trifluoroethyl)carbamoyl]oxy}methyl)morpholin-2-yl]ethyl}pyridin-3-yl)-Nα-(methoxycarbonyl)-L-phenylalaninamide] | 18 nM | 1.6 nM
7 | NC(=O)OC[C@@H]1CO[C@H](CCc2c(F)cccc2NC(=O)C[C@@H](c2ccc(F)cc2)c2ccc(F)cc2F)CN1 [Example 156, {(3S,6R)-6-[2-(2-{[(3S)-3-(2,4-difluorophenyl)-3-(4-fluorophenyl)propanoyl]amino}-6-fluoro-phenyl)ethyl]morpholin-3-yl}methyl carbamate] | 26 nM | 10 nM
8 | COc1ccc([C@H](CC(=O)Nc2cccc(F)c2CC[C@@H]2CN[C@H](COC(=O)NCC(F)(F)F)CO2)c2ccc(F)cc2)cc1 [Example 151, {(3S,6R)-6-[2-(2-fluoro-6-{[(3S)-3-(4-fluorophenyl)-3-(4-methoxy-phenyl)propanoyl]amino}phenyl)ethyl]morpholin-3-yl}methyl (2,2,2-trifluoroethyl)carbamate] | 290 nM | 100 nM
9 | N[C@H](C(=O)Nc1cncc(F)c1CC[C@@H]1CN[C@H](COC(=O)NC2CCCOC2)CO1)C(c1ccc(F)cc1)c1ccc(F)cc1 (stereo partly drawn) [Example 253, 4-fluoro-β-(4-fluorophenyl)-N-(5-fluoro-4-{2-[(2R,5S)-5-{[(tetrahydro-2H-pyran-3-ylcarbamoyl)oxy]methyl}morpholin-2-yl]ethyl}pyridin-3-yl)-L-phenylalaninamide] | 24 nM | 7.7 nM
10 | N[C@H](C(=O)Nc1c(Cl)cccc1OC[C@@H]1CN[C@H](COC(=O)NCC(F)(F)F)CO1)C(c1ccc(F)cc1)c1ccc(F)cc1 [Example 260, N-(2-chloro-6-{[(2S,5S)-5-({[(2,2,2-trifluoroethyl)carbamoyl]oxy}methyl)morpholin-2-yl]methoxy}phenyl)-4-fluoro-β-(4-fluorophenyl)-L-phenylalaninamide] | 190 nM | 4.8 nM
11 | N[C@H](C(=O)Nc1cccc(F)c1CC[C@@H]1CN[C@H](COC(=O)NCC(F)(F)F)CO1)[C@H](c1ccc(F)cc1)c1ccc(Cl)cc1 [Example 273, (βR)-β-(4-chlorophenyl)-4-fluoro-N-(3-fluoro-2-{2-[(2R,5S)-5-({[(2,2,2-trifluoroethyl)carbamoyl]oxy}methyl)morpholin-2-yl]ethyl}phenyl)-L-phenylalaninamide] | 20 nM | 1.4 nM
12 | O=C(C[C@H](c1ccc(F)cc1)c1ccc(Br)cc1)Nc1cccc(F)c1CC[C@@H]1CN[C@H](COC(=O)NCC(F)(F)F)CO1 [Example 155, {(3S,6R)-6-[2-(2-{[(3R)-3-(4-bromophenyl)-3-(4-fluorophenyl)propanoyl]amino}-6-fluoro-phenyl)ethyl]morpholin-3-yl}methyl (2,2,2-trifluoroethyl)carbamate] | 58 nM | 6.1 nM
13 | N[C@H](C(=O)Nc1cncc(F)c1CC[C@@H]1CN[C@H](COC(=O)NCC2CCOCC2)CO1)C(c1ccc(F)cc1)c1ccc(F)cc1 [Example 208, 4-fluoro-β-(4-fluorophenyl)-N-(5-fluoro-4-{2-[(2R,5S)-5-({[(tetrahydro-2H-pyran-4-ylmethyl)carbamoyl]oxy}methyl)morpholin-2-yl]ethyl}pyridin-3-yl)-L-phenylalaninamide] | 100 nM | 18 nM
14 | COC(=O)N[C@H](C(=O)Nc1cccc(F)c1CC[C@@H]1CN[C@H](COC(=O)NCC(F)(F)F)CO1)C(c1ccc(F)cc1)c1ccc(F)cc1 [Example 285] | 21 nM | 13 nM
15 | N[C@H](C(=O)Nc1cccc(F)c1CC[C@@H]1CN[C@H](COC(=O)NCC(F)(F)F)CO1)[C@H](c1ccc(F)cc1)c1cccc(Cl)c1 [Example 257, (βR)-β-(3-chlorophenyl)-4-fluoro-N-(3-fluoro-2-{2-[(2R,5S)-5-({[(2,2,2-trifluoroethyl)carbamoyl]oxy}methyl)morpholin-2-yl]ethyl}phenyl)-L-phenylalaninamide] | 51 nM | 5.1 nM
16 | N[C@H](C(=O)Nc1cncc(F)c1CC[C@@H]1CN[C@H](COC(=O)NCC(F)(F)F)CO1)[C@@H](c1ccc(F)cc1)c1cccc(C(F)(F)F)c1 [Example 272, (βS)-4-fluoro-N-(5-fluoro-4-{2-[(2R,5S)-5-({[(2,2,2-trifluoroethyl)carbamoyl]oxy}methyl)morpholin-2-yl]ethyl}pyridin-3-yl)-β-[3-(trifluoromethyl)phenyl]-L-phenylalaninamide] | 32 nM | 2 nM
17 | O=C(C[C@@H](c1ccc(F)cc1)c1cc(F)ccc1F)Nc1cncc(F)c1CC[C@@H]1CN[C@H](COC(=O)NCC(F)(F)F)CO1 [Example 149, {(3S,6R)-6-[2-(3-{[(3S)-3-(2,5-difluorophenyl)-3-(4-fluorophenyl)propanoyl]amino}-5-fluoropyridin-4-yl)ethyl]morpholin-3-yl}methyl (2,2,2-trifluoroethyl)carbamate] | 14 nM | 1.4 nM
18 | COC(=O)N[C@H](C(=O)Nc1cncc(F)c1CC[C@@H]1CNC(COC(=O)NCC(F)(F)F)CO1)[C@@H](c1ccc(F)cc1)c1cc(F)cc(F)c1 (stereo in doubt) [Example 91, (2S,3S)-2-(Methoxycarbonylamino)-3-(4-fluorophenyl)-3-(3,5-difluorophenyl)-N-(5-fluoro-4-(2-((2R,5R)-5-(2,2,2-trifluoroethylaminocarbonyloxymethyl)morpholine-2-yl)ethyl)pyridin-3-yl)propanamide] | 16 nM | 3 nM
19 | N[C@H](C(=O)Nc1cncc(F)c1CC[C@@H]1CN[C@H](COC(=O)NCC(F)(F)F)CO1)[C@@H](c1ccc(F)cc1)c1cc(F)ccc1F [Example 268, (βS)-2,5-difluoro-β-(4-fluorophenyl)-N-(5-fluoro-4-{2-[(2R,5S)-5-({[(2,2,2-trifluoroethyl)carbamoyl]oxy}methyl)morpholin-2-yl]ethyl}pyridin-3-yl)-L-phenylalaninamide] | 44 nM | 2.8 nM
20 | N[C@H](C(=O)Nc1cncc(F)c1CC[C@@H]1CN[C@H](COC(=O)NC2(c3ccccn3)CC2)CO1)C(c1ccc(F)cc1)c1ccc(F)cc1 [Example 214, 4-fluoro-β-(4-fluorophenyl)-N-(5-fluoro-4-{2-[(2R,5S)-5-({[(1-pyridin-2-ylcyclopropyl)carbamoyl]oxy}methyl)morpholin-2-yl]ethyl}pyridin-3-yl)-L-phenylalaninamide] | 58 nM | 5.2 nM
21 | CC(C)OC(=O)N[C@H](C(=O)Nc1cncc(F)c1CC[C@@H]1CN[C@H](COC(=O)NCC(F)(F)F)CO1)C(c1ccc(F)cc1)c1ccc(F)cc1 [Example 277, 4-fluoro-β-(4-fluorophenyl)-N-(5-fluoro-4-{2-[(2R,5S)-5-({[(2,2,2-trifluoroethyl)carbamoyl]oxy}methyl)morpholin-2-yl]ethyl}pyridin-3-yl)-Nα-[(1-methylethoxy)carbonyl]-L-phenylalaninamide] | 23 nM | 3.2 nM
